Experimental data taken from patent US6495523B1, “Tricyclic monosaccharide derivatives useful in treating acute ischemia-induced neurodegeneration” (Ortho McNeil-Pharmaceutical, Inc., priority 1999, dated 2002).

Assays:
Male Long-Evans rats = experiment: Neurologic assessment in rat cardiac arrest (global ischemia) model; type: in vivo; details: conditions of Table 1
Description: Male Long-Evans rats (250 g) were obtained from Charles River Laboratories, Portage, Mich. The neurologic function and seizure susceptibility of each animal was tested according to the methods described below. The rats were housed in the experimental laboratory for at least 24 h prior to study to avoid transit stress and to ensure a 24-h fasting period. Only rats with blood glucose levels of 100 mg/dL or less at the end of fasting were used in the experiments.
General anesthesia was induced with ketamine (100 mg/kg, ip) and maintained with small fractional supplements as needed. Tracheal intubation was performed using a custom-made fiberoptic rodent laryngoscope and a 14-gauge polyethylene catheter. Needle electrodes were inserted in the scalp and thorax to monitor the EEG and ECG, respectively, while blood pressure was measured via an indwelling femoral arterial cannula. Body and brain temperatures were monitored by thermistors placed in the rectum and temporalis muscle, respectively. […]
Neurologic assessment was identical to that described for the use with this model by Wauquier et al. (Neuropharmacology 1989; 28(8):837-846). […] In addition to the neurodeficit score, the angle of inclination at which the rat could no longer cling to the inclined plane was determined. Performance was quantified as percent of preinsult baseline.

human epilepsy = details: adjunctive therapy or monotherapy; clinical trials; cited from earlier work

| SMILES | detrimental effect on exploratory behavior (effect in words) (Male Long-Evans rats) | ischemia-induced neurological deficit (effect in words) (Male Long-Evans rats) | efficacy in treating simple and complex partial seizures and secondarily generalized seizures (human epilepsy) |
| --- | --- | --- | --- |
| CC1(C)O[C@H]2[C@@H]3OS(=O)(=O)O[C@@H]3CO[C@@]2(COS(N)(=O)=O)O1 [RWJ-37947] | significantly reduced | significantly reduced | – |
| CC1(C)O[C@@H]2[C@@H](CO[C@@]3(COS(N)(=O)=O)OC(C)(C)O[C@@H]23)O1 [topiramate, 2,3:4,5-bis-O-(1-methylethylidene)-β-D-fructopyranose sulfamate] | – | – | effective |
